Test results as given in PubChem BioAssay AID330 (DTP/NCI, 2004).
Where “and” joins values, the source holds several entries; their conditions need not be identical. Identical values can stand only once. Toxic doses and inconclusive results are not listed. The calls were made as follows: active = survival T/C of 150% or more; inactive = T/C below 125% in these data. Peptide text beside a SMILES is read from it. * marks the point of attachment. Cbz = O=C(OCc1ccccc1)*

Tested on: P388 leukemia ip, CD2F1 mice, survival T/C
Assay: NCI In Vivo Anticancer Drug Screen. Data for tumor model P388 Leukemia (intraperitoneal) in CD2F1 (CDF1) mice
Conditions: endpoint: median survival time, higher = longer survival
In short: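 Mice carrying the transplanted tumor received test compound or vehicle. Survival was recorded in each group, and the value is the treated-group measurement divided by that of the vehicle-treated control group.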

[1] = dose: 12.5 mg/kg/injection, schedule: Q01DX009 (ip), vehicle: Klucel (hydroxypropylcellulose) (HPC)
[2] = dose: 25.0 mg/kg/injection, schedule: Q01DX009 (ip), vehicle: Klucel (hydroxypropylcellulose) (HPC)
[3] = dose: 50.0 mg/kg/injection, schedule: Q01DX005 (ip), vehicle: saline with Tween-80
[4] = dose: 100.0 mg/kg/injection, schedule: Q01DX005 (ip), vehicle: saline with Tween-80
[5] = dose: 50.0 mg/kg/injection, schedule: Q01DX005 (ip), vehicle: Klucel (hydroxypropylcellulose) (HPC)
[6] = dose: 200.0 mg/kg/injection, schedule: Q01DX005 (ip), vehicle: Klucel (hydroxypropylcellulose) (HPC)
[7] = dose: 50.0 mg/kg/injection, schedule: Q01DX009 (ip), vehicle: saline
[8] = dose: 100.0 mg/kg/injection, schedule: Q01DX009 (ip), vehicle: saline
[9] = dose: 100.0 mg/kg/injection, schedule: Q01DX009 (ip), vehicle: saline with Tween-80
[10] = dose: 200.0 mg/kg/injection, schedule: Q01DX009 (ip), vehicle: saline with Tween-80
[11] = dose: 1.56 mg/kg/injection, schedule: Q01DX009 (ip), vehicle: other
[12] = dose: 6.25 mg/kg/injection, schedule: Q01DX009 (ip), vehicle: other
[13] = dose: 12.5 mg/kg/injection, schedule: Q01DX009 (ip), vehicle: other
[14] = dose: 25.0 mg/kg/injection, schedule: Q01DX009 (ip), vehicle: other
[15] = dose: 12.5 mg/kg/injection, schedule: Q01DX005 (ip), vehicle: Klucel (hydroxypropylcellulose) (HPC)
[16] = dose: 25.0 mg/kg/injection, schedule: Q01DX005 (ip), vehicle: Klucel (hydroxypropylcellulose) (HPC)
[17] = dose: 6.25 mg/kg/injection, schedule: Q01DX009 (ip), vehicle: saline with Tween-80
[18] = dose: 6.25 mg/kg/injection, schedule: Q01DX009 (ip), vehicle: saline
[19] = dose: 12.5 mg/kg/injection, schedule: Q01DX009 (ip), vehicle: saline with Tween-80
[20] = dose: 25.0 mg/kg/injection, schedule: Q01DX009 (ip), vehicle: saline
[21] = dose: 200.0 mg/kg/injection, schedule: Q01DX005 (ip), vehicle: saline with Tween-80

Measured: T/C

COc1ccc(/C=C2\CCc3cc(OC)ccc3C2=O)cc1
inactive: dose: 6.25 mg/kg/injection, schedule: Q01DX009 (ip), vehicle: Klucel (hydroxypropylcellulose) (HPC) 117 % of control | [1] 117 % of control | [2] 115 % of control

O=c1sc2ccccc2nc1NNc1ccccc1
inactive: [3] 90 % of control | [4] 90 % of control

COc1ccc2c(c1)C(O)NC(=O)O2 (configuration not stated)
inactive: [5] 98 % of control | dose: 100.0 mg/kg/injection, schedule: Q01DX005 (ip), vehicle: Klucel (hydroxypropylcellulose) (HPC) 103 % of control | [6] 119 % of control

O=C(CCN1C(=O)c2ccccc2C1=O)c1cnc[nH]1
inactive: dose: 17.5 mg/kg/injection, schedule: Q01DX005 (ip), vehicle: Klucel (hydroxypropylcellulose) (HPC) 105 % of control | dose: 35.0 mg/kg/injection, schedule: Q01DX005 (ip), vehicle: Klucel (hydroxypropylcellulose) (HPC) 90 % of control | dose: 70.0 mg/kg/injection, schedule: Q01DX005 (ip), vehicle: Klucel (hydroxypropylcellulose) (HPC) 98 % of control

NCc1cc(=O)[nH]o1
inactive: [7] 89 % of control | [8] 92 % of control

O=C(CCCCC(=O)N/N=C\c1ccccn1)N/N=C\c1ccccn1
inactive: [9] 109 % of control | [10] 100 % of control | dose: 400.0 mg/kg/injection, schedule: Q01DX009 (ip), vehicle: saline with Tween-80 109 % of control

CCOC/C(=N\NS(=O)(=O)c1ccc(C)cc1)C1(O)Cc2c(O)c3c(c(O)c2C(O)C1)C(=O)c1c(OC)cccc1C3=O (configuration not stated)
inactive: [11] 100 % of control | dose: 3.13 mg/kg/injection, schedule: Q01DX009 (ip), vehicle: other 100 % of control | [12] 103 % of control | [13] 107 % of control | [14] 94 % of control

Cc1ccc(C(O)(CNC2CCCCC2)c2ccccc2)cc1 (configuration not stated)
inactive: dose: 25.0 mg/kg/injection, schedule: Q01DX009 (ip), vehicle: saline sonified 104 % of control | dose: 50.0 mg/kg/injection, schedule: Q01DX009 (ip), vehicle: saline sonified 104 % of control

Cc1cnc(C#N)c(C#N)n1
inactive: dose: 6.25 mg/kg/injection, schedule: Q01DX005 (ip), vehicle: Klucel (hydroxypropylcellulose) (HPC) 103 % of control | [15] 106 % of control | [16] 100 % of control | [5] 116 % of control

CCCCCC(C[N+](C)(C)C)C(=O)/C=C/c1ccc(Cl)c(Cl)c1 (configuration not stated)
inactive: dose: 3.12 mg/kg/injection, schedule: Q01DX009 (ip), vehicle: saline with Tween-80 105 % of control | [17] 120 % of control | [18] 114 % of control | [19] 101 % of control | dose: 12.5 mg/kg/injection, schedule: Q01DX009 (ip), vehicle: saline 114 % of control and 124 % of control | dose: 25.0 mg/kg/injection, schedule: Q01DX009 (ip), vehicle: saline with Tween-80 111 % of control | [20] 110 % of control

COc1cc2c(cc1O)C(c1cc(O)c(O)c(OC)c1)C(O)(C(=O)O)C(CO)C2O (configuration not stated)
inactive: [3] 100 % of control | [4] 101 % of control | [21] 99 % of control

Cc1cc2nc(C=C(C(F)(F)F)C(F)(F)F)oc2cc1C
inactive: dose: 1.56 mg/kg/injection, schedule: Q01DX009 (ip), vehicle: saline with Tween-80 98 % of control | dose: 3.13 mg/kg/injection, schedule: Q01DX009 (ip), vehicle: saline with Tween-80 98 % of control | [17] 95 % of control | [19] 93 % of control

CO/C=C1\OC(=O)C=C1OC
inactive: [3] 101 % of control | [4] 108 % of control | [21] 114 % of control

CC(NC(=O)OCc1ccccc1)C(=O)NC(C(N)=O)C(C)C (stereo not drawn) (Cbz-Ala-Val-NH2; configuration not given here)
inactive: [15] 89 % of control | [16] 100 % of control | [6] 86 % of control

CC(C)CCCCCCCCCCCCC(=O)NCCC(=O)NC1C(CO)OC(Nc2ncnc3nc[nH]c23)C(O)C1O (configuration not stated)
inactive: dose: 0.39 mg/kg/injection, schedule: Q01DX009 (ip), vehicle: other 107 % of control | dose: 0.78 mg/kg/injection, schedule: Q01DX009 (ip), vehicle: other 102 % of control | [12] 112 % of control and 96 % of control | [13] 93 % of control
active: [11] 156 % of control

CSc1nc(NC(C)C)nc(NC(C)C)n1
inactive: dose: 50.0 mg/kg/injection, schedule: Q04DX003 (ip), vehicle: saline with Tween-80 100 % of control | dose: 100.0 mg/kg/injection, schedule: Q04DX003 (ip), vehicle: saline with Tween-80 91 % of control

NC1=NS(=O)(=O)Nc2nonc21
inactive: dose: 50.0 mg/kg/injection, schedule: Q01DX009 (ip), vehicle: saline with Tween-80 96 % of control | [9] 89 % of control | [10] 89 % of control

c1ccc2c(c1)CCNC2C1NCCc2ccccc21 (configuration not stated)
inactive: [1] 107 % of control | [2] 100 % of control | dose: 50.0 mg/kg/injection, schedule: Q01DX009 (ip), vehicle: Klucel (hydroxypropylcellulose) (HPC) 104 % of control | dose: 100.0 mg/kg/injection, schedule: Q01DX001 (ip), vehicle: Klucel (hydroxypropylcellulose) (HPC) 109 % of control | dose: 100.0 mg/kg/injection, schedule: Q01DX009 (ip), vehicle: Klucel (hydroxypropylcellulose) (HPC) 105 % of control and 91 % of control | dose: 200.0 mg/kg/injection, schedule: Q01DX001 (ip), vehicle: Klucel (hydroxypropylcellulose) (HPC) 107 % of control

CCC[P+](CCC)(CCC)CCCCCCCCCC[P+](CCC)(CCC)CCC
inactive: dose: 0.19 mg/kg/injection, schedule: Q01DX009 (ip), vehicle: saline 106 % of control | dose: 0.39 mg/kg/injection, schedule: Q01DX009 (ip), vehicle: saline 100 % of control | dose: 0.79 mg/kg/injection, schedule: Q01DX009 (ip), vehicle: saline 88 % of control

O=C(O)C1=C(O)CCN=C1
inactive: [15] 99 % of control | [16] 99 % of control | [5] 105 % of control

CC1=CCC(=O)C=[N+]1Cc1ccccc1
inactive: dose: 6.25 mg/kg/injection, schedule: Q01DX005 (ip), vehicle: saline 114 % of control | dose: 12.5 mg/kg/injection, schedule: Q01DX005 (ip), vehicle: saline 100 % of control

CC12CCC(N3CCCC3)CC1=CCC1C2CCC2(C)C1CCCN2CCO (configuration not stated)
inactive: dose: 12.5 mg/kg/injection, schedule: Q01DX001 (ip), vehicle: Klucel (hydroxypropylcellulose) (HPC) 99 % of control | dose: 25.0 mg/kg/injection, schedule: Q01DX001 (ip), vehicle: Klucel (hydroxypropylcellulose) (HPC) 99 % of control | dose: 50.0 mg/kg/injection, schedule: Q01DX001 (ip), vehicle: Klucel (hydroxypropylcellulose) (HPC) 103 % of control

Cc1cc(OCCCC[N+](C)(C)Cc2ccc(Br)o2)c(C(C)C)cc1Cl
inactive: dose: 1.56 mg/kg/injection, schedule: Q01DX009 (ip), vehicle: saline 91 % of control | dose: 3.13 mg/kg/injection, schedule: Q01DX009 (ip), vehicle: saline 100 % of control | [18] 103 % of control and 105 % of control

NS(=O)(=O)c1ccc(CN2C(=O)c3ccccc3C2=O)cc1
inactive: dose: 100.0 mg/kg/injection, schedule: Q04DX002 (ip), vehicle: saline with Tween-80 110 % of control

Cn1cnc([N+](=O)[O-])c1Sc1ccncn1
inactive: [20] 101 % of control and 105 % of control | [7] 99 % of control and 103 % of control and 114 % of control | [8] 103 % of control and 118 % of control | dose: 200.0 mg/kg/injection, schedule: Q01DX009 (ip), vehicle: saline 112 % of control and 116 % of control

Cc1ccc(S(=O)(=O)NC(CNC(N)=O)C(=O)O)cc1 (configuration not stated)
inactive: [13] 107 % of control | [14] 101 % of control | dose: 50.0 mg/kg/injection, schedule: Q01DX009 (ip), vehicle: other 100 % of control | dose: 100.0 mg/kg/injection, schedule: Q01DX009 (ip), vehicle: other 97 % of control | dose: 200.0 mg/kg/injection, schedule: Q01DX009 (ip), vehicle: other 96 % of control
